13 compounds from ChEMBL document CHEMBL3580572, “Synthesis of mixed opioid affinity cyclic endomorphin-2 analogues with fluorinated phenylalanines” (ACS Med Chem Lett, 2015) can be followed below.

The subject of data set [1] is Mus musculus. Put plainly: Antinociceptive activity in CD1 mouse assessed as inhibition of jumping behavior at 100 ng, icv after 10 mins by hot plate assay in presence of kappa opioid receptor antagonist nor-BNI. In kind it is functional, organism-based. A general note: Hot-plate and tail-flick tests time the reaction to a heat stimulus.
The target in data set [2] is T1, Delta-type opioid receptor (Homo sapiens, UniProt P41143). Kind of data set: Agonist activity at human recombinant delta opioid receptor expressed in CHO cells co-expressing Galphaq66Di5 assessed as stimulation of calcium release by Fluo-4 AM dye-based fluorescence assay. In kind it is functional, cell-based.
Data set [3] has as its target T2, Mu-type opioid receptor (Homo sapiens, UniProt P35372). Put plainly: Agonist activity at human recombinant mu opioid receptor expressed in CHO cells co-expressing C-terminally modified GGalphaqi5 assessed as stimulation of calcium release by Fluo-4 AM dye-based fluorescence assay. Format: functional, cell-based.
Data set [4] can be described thus: Metabolic stability in rat brain homogenates assessed as enzymatic degradation by measuring compound remaining at 0.5 mM after 90 mins by RP-HPLC analysis. Format: ADME, tissue-based. The settings on record: brain homogenate, read-out: Stability.
The target in data set [5] is T3, Kappa-type opioid receptor (Homo sapiens, UniProt P41145). Put plainly: Agonist activity at human recombinant kappa opioid receptor expressed in CHO cells co-expressing C-terminally modified Galphaqi5 assessed as stimulation of calcium release by Fluo-4 AM dye-based fluorescence assay. Format: functional, cell-based.
In data set [6] the target is Kappa-type opioid receptor (Cavia porcellus, UniProt P41144). Kind of data set: Displacement of [3H]nor-BNI from kappa opioid receptor in guinea pig brain membranes after 120 mins by scintillation counting analysis. Format: cell membranes, Membrane. On the technique in general: Displacement assays read how much labelled ligand stays bound in the presence of the test substance.

Data set [7] deals with Mu-type opioid receptor (Rattus norvegicus, UniProt P33535). Kind of data set: Displacement of [3H]DAMGO from mu opioid receptor in Wistar rat brain membranes after 120 mins by scintillation counting analysis. Format: cell membranes, Membrane.
The target of data set [8] is Delta-type opioid receptor (Rattus norvegicus, UniProt P33533). Kind of data set: Displacement of [3H][Ile5,6]deltorphin-2 from delta opioid receptor in Wistar rat brain membranes after 120 mins by scintillation counting analysis. Format: cell membranes, Membrane.
Data set [9] has as its target T1, Delta-type opioid receptor. Put plainly: Intrinsic activity at human recombinant delta opioid receptor expressed in CHO cells co-expressing Galphaq66Di5 assessed as efficacy ratio by measuring stimulation of calcium release by Fluo-4 AM dye-based fluorescence assay relative to DPDPE. In kind it is functional, cell-based.
For data set [10], the system named is Mus musculus. Put plainly: Antinociceptive activity in CD1 mouse assessed as inhibition of jumping behavior at 0.3 to 10 mg/kg, ip after 15 mins by hot plate assay. Format: functional, organism-based.
The test system of data set [11] is Mus musculus. Kind of data set: Antinociceptive activity in icv dosed CD1 mouse assessed as inhibition of jumping behavior after 10 mins by hot plate assay. In kind it is functional, organism-based.
Data set [12] deals with Mus musculus. Put plainly: Antinociceptive activity in CD1 mouse assessed as inhibition of jumping behavior at 100 ng, icv after 10 mins by hot plate assay in presence of mu opioid receptor antagonist beta-FNA. Format: functional, organism-based.
Data set [13] has as its target T3, Kappa-type opioid receptor. Kind of data set: Intrinsic activity at human recombinant kappa opioid receptor expressed in CHO cells co-expressing C-terminally modified Galphaqi5 assessed as efficacy ratio by measuring stimulation of calcium release by Fluo-4 AM dye-based fluorescence assay relative to dynorphin-A. In kind it is functional, cell-based.
Data set [14] deals with T1, Delta-type opioid receptor. Put plainly: Agonist activity at human recombinant delta opioid receptor expressed in CHO cells co-expressing Galphaq66Di5 assessed as stimulation of calcium release up to 1 uM by Fluo-4 AM dye-based fluorescence assay. In kind it is functional, cell-based.
Data set [15] concerns the target T2, Mu-type opioid receptor. Put plainly: Agonist activity at human recombinant mu opioid receptor expressed in CHO cells co-expressing C-terminally modified Galphaqi5 assessed as stimulation of calcium release up to 1 uM by Fluo-4 AM dye-based fluorescence assay. Format: functional, cell-based.
The test system of data set [16] is Mus musculus. Kind of data set: Antinociceptive activity in CD1 mouse assessed as maximal possible effect by measuring inhibition of jumping behavior at 10 mg/kg, ip after 15 mins by hot plate assay relative to control. In kind it is functional.

The source made the active and inactive calls. The calls are words filed in the database; no cut-off is given here. Where a SMILES comes first, the peptide text is derived from it. Bridges are numbered along the chain shown (N, C = ends). [ ]: non-standard residue; d: D form. Phe(4-CF3) = N[C@@H](Cc1ccc(C(F)(F)F)cc1)C(=O)O; Dmt = Cc1cc(O)cc(C)c1C[C@H](N)C(=O)O

Sequence of Kappa-type opioid receptor (Cavia porcellus, UniProt P41144) (P41144 whole entry): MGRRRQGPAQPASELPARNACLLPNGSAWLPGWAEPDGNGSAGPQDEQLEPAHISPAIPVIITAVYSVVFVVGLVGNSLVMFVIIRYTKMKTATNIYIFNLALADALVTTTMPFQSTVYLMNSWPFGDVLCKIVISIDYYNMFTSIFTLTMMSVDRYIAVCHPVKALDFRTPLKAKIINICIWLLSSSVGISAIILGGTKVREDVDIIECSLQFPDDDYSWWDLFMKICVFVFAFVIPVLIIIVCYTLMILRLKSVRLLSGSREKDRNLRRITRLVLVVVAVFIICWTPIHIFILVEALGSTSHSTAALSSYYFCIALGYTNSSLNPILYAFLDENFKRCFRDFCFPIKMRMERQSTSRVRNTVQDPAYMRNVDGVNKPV
Sequence of Delta-type opioid receptor (Rattus norvegicus, UniProt P33533) (P33533 whole entry): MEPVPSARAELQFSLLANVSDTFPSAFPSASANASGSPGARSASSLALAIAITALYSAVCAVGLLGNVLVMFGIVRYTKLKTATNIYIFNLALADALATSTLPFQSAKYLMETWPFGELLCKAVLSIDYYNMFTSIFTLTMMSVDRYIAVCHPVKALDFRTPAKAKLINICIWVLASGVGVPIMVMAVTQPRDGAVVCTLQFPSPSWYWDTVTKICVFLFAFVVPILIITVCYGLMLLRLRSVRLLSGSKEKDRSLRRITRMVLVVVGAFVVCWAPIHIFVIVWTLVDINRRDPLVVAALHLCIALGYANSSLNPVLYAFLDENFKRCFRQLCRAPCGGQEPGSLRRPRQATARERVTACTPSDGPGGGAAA
Sequence of Mu-type opioid receptor (Rattus norvegicus, UniProt P33535) (P33535 whole entry): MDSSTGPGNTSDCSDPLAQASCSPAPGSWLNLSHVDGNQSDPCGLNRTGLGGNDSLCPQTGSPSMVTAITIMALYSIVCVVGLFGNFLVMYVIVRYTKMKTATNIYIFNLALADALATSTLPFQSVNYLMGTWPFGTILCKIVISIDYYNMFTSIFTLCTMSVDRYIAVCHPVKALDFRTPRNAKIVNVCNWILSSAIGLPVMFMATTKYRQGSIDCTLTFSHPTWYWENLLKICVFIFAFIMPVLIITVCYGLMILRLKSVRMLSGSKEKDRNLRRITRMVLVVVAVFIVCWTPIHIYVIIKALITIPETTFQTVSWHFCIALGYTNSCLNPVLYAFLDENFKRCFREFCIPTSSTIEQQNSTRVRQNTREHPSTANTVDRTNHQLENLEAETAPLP
T3 sequence (P41145 whole entry): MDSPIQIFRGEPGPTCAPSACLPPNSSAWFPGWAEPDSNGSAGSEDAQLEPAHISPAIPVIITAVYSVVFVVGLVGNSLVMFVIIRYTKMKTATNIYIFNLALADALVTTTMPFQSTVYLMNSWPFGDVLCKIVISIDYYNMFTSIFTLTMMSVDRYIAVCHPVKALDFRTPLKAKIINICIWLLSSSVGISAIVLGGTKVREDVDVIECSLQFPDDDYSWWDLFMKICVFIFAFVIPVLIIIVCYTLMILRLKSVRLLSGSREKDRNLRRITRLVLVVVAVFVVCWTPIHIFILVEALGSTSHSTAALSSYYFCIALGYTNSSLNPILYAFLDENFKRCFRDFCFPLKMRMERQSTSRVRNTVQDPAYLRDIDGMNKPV
T2 sequence (P35372 whole entry): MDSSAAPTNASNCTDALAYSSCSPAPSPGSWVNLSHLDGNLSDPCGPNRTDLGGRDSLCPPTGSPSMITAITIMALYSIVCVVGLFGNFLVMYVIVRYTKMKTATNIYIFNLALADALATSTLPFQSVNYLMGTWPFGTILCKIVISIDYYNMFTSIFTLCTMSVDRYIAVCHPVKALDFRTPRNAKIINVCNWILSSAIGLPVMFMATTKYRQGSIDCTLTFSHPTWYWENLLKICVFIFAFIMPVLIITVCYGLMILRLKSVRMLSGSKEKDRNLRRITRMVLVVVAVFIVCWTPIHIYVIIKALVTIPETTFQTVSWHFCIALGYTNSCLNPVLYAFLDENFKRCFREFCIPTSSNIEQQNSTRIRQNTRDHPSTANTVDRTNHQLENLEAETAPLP
T1 sequence (P41143 whole entry): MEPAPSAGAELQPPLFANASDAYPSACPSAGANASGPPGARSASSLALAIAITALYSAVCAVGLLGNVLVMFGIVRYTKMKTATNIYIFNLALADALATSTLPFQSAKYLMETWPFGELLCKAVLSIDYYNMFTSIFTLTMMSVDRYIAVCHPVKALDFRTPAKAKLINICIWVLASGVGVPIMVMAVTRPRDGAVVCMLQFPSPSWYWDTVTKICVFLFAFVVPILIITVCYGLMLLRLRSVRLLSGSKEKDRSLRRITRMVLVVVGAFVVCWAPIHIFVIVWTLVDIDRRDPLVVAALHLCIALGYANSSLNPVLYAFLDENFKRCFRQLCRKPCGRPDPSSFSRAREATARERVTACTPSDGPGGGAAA

One may read the EC50 as the concentration at which the effect is half-maximal. What is called IC50 is the concentration that inhibits the measured activity by half. Lower therefore signals inhibition by little substance. Consider `Cc1cc(O)cc(C)c1C[C@H](N)C(=O)N[C@@H]1CCCCNC(=O)C[C@@H](C(N)=O)NC(=O)[C@H](Cc2ccc(F)cc2)NC(=O)[C@H](Cc2ccccc2)NC1=O`, for which the inhibition result with Mus musculus [1] and in the data set on Mus musculus [10] was “Active” throughout. Further, the EC50 in data set [2] is 33.9 nM; at Mu-type opioid receptor [3], 2.75 nM; in [5] it was 2.24 nM. Also, the remaining at 1.5 h, 500 µM in [4] was found to be 93%. The results for the IC50 (in [6]; on Mu-type opioid receptor [7]; in [8]) were 0.55 nM, 0.61 nM and 168 nM, respectively. Besides, the Ratio in [9] amounted to 0.21; in data set [13], 0.71. Also, in the data set on Mus musculus [11], the inhibition result is “Dose-dependent effect”. In the data set on Mus musculus [12], the inhibition entry was “inactive”.
Take `NC(=O)[C@H](Cc1ccccc1)NC(=O)[C@H](Cc1ccccc1)NC(=O)[C@@H]1CCCN1C(=O)[C@@H](N)Cc1ccc(O)cc1` [ENDOMORPHIN 2]: in data set [4], the remaining at 1.5 h, 500 µM turned out to be 0.61%.
For the compound `Cc1cc(O)cc(C)c1C[C@H](N)C(=O)N[C@@H]1CCCCNC(=O)C[C@@H](C(N)=O)NC(=O)[C@H](Cc2ccccc2)NC(=O)[C@H](Cc2ccc(F)cc2)NC1=O`, in [14], the result was inactive. In addition, the 50% effective concentration (EC50) at Mu-type opioid receptor [3] is 2.51 nM; in data set [5] it was 4.79 nM. Further, the remaining at 1.5 h, 500 µM in data set [4] was 96%. Besides, the results for the IC50 (in [6]; at Mu-type opioid receptor [7]; in data set [8]) were 2.4 nM, 0.55 nM and 280 nM, respectively. The Ratio in data set [13] is 0.79.
On to `NC(=O)[C@@H]1CC(=O)NCCCC[C@@H](NC(=O)[C@@H](N)Cc2ccc(O)cc2)C(=O)N[C@@H](Cc2ccccc2)C(=O)N[C@@H](Cc2ccc(F)cc2F)C(=O)N1`, for which the EC50 in data set [2] is 126 nM; on Mu-type opioid receptor [3], 6.31 nM; in data set [5], 4.9 nM. Further, in [4], the remaining at 1.5 h, 500 µM was 94%. The IC50 in data set [6] came to 0.9 nM; at Mu-type opioid receptor [7], 0.42 nM; in data set [8] it was 110 nM. The Ratio in data set [9] was found to be 0.5; in data set [13] it was 0.78.
As for `NC(=O)[C@@H]1CC(=O)NCCCC[C@@H](NC(=O)[C@@H](N)Cc2ccc(O)cc2)C(=O)N[C@@H](Cc2ccc(F)cc2)C(=O)N[C@@H](Cc2ccccc2)C(=O)N1`, the results for the EC50 (in data set [2]; at Mu-type opioid receptor [3]; in [5]) were 457 nM, 2.57 nM and 10 nM, respectively. Also, the remaining at 1.5 h, 500 µM in data set [4] worked out at 96%. For the same compound, the figures for the IC50 (in data set [6]; at Mu-type opioid receptor [7]; in [8]) were 2.43 nM, 0.72 nM and 348 nM, respectively. In addition, the Ratio in [9] stood at 0.14; in data set [13], 0.89.
As to `NC(=O)[C@@H]1CC(=O)NCCCC[C@@H](NC(=O)[C@@H](N)Cc2ccc(O)cc2)C(=O)N[C@@H](Cc2ccc(C(F)(F)F)cc2)C(=O)N[C@@H](Cc2ccccc2)C(=O)N1`, the result (on Mu-type opioid receptor [15]; in [14]) was inactive. Further, in data set [4], the remaining at 1.5 h, 500 µM was 97%. Besides, the EC50 in data set [5] is 72.4 nM. Moreover, the IC50 in data set [6] was 24.5 nM; at Mu-type opioid receptor [7], more than 1000 nM; in [8], more than 1000 nM. The Ratio in data set [13] came to 0.7.
As to `NC(=O)[C@@H]1CC(=O)NCCCC[C@@H](NC(=O)[C@@H](N)Cc2ccc(O)cc2)C(=O)N[C@@H](Cc2ccccc2)C(=O)N[C@@H](Cc2ccc(F)cc2)C(=O)N1`, the values for the EC50 (in data set [2]; on Mu-type opioid receptor [3]; in [5]) were 51.3 nM, 3.24 nM and 1.05 nM, respectively. The remaining at 1.5 h, 500 µM in data set [4] turned out to be 93%. Also, the half-inhibitory concentration (IC50) in data set [6] is 0.6 nM; at Mu-type opioid receptor [7] it was 0.98 nM; in data set [8], 286 nM. Besides, the Ratio in data set [9] turned out to be 0.2; in data set [13], 0.88.
On to `Cc1cc(O)cc(C)c1C[C@H](N)C(=O)N[C@@H]1CCCCNC(=O)C[C@@H](C(N)=O)NC(=O)[C@H](Cc2ccccc2)NC(=O)[C@H](Cc2ccc(F)cc2F)NC1=O`, for which the concentration for a half-maximal effect (EC50) at Mu-type opioid receptor [3] was 5.13 nM; in [5], 2.82 nM. The remaining at 1.5 h, 500 µM in data set [4] was found to be 94%. Moreover, the IC50 in data set [6] was determined as 0.6 nM; at Mu-type opioid receptor [7], 0.54 nM; in [8] it was 342 nM. Moreover, the Ratio in data set [13] stood at 0.65.
Regarding `NC(=O)[C@@H]1CC(=O)NCCCC[C@@H](NC(=O)[C@@H](N)Cc2ccc(O)cc2)C(=O)N[C@@H](Cc2ccc(F)cc2F)C(=O)N[C@@H](Cc2ccccc2)C(=O)N1`, the result in data set [14] was inactive. Also, the EC50 at Mu-type opioid receptor [3] was 4.07 nM; in data set [5] it was 7.59 nM. In data set [4], the remaining at 1.5 h, 500 µM came out at 93%. The figures for the IC50 (in data set [6]; on Mu-type opioid receptor [7]; in data set [8]) were 3.26 nM, 0.69 nM and more than 1000 nM, respectively. Also, the Ratio in [13] came to 0.78.
Turning to `Cc1cc(O)cc(C)c1C[C@H](N)C(=O)N[C@@H]1CCCCNC(=O)C[C@@H](C(N)=O)NC(=O)[C@H](Cc2ccc(F)cc2F)NC(=O)[C@H](Cc2ccccc2)NC1=O`, the inhibition entry with Mus musculus [1] is “Active”. Also, the figures for the EC50 (in data set [2]; at Mu-type opioid receptor [3]; in [5]) were 8.71 nM, 1.66 nM and 1.35 nM, respectively. Moreover, the remaining at 1.5 h, 500 µM in data set [4] was determined as 97%. Besides, the IC50 in [6] was 0.3 nM; at Mu-type opioid receptor [7], 0.49 nM; in data set [8] it was 11.2 nM. Also, the Ratio amounted to 0.37 in data set [9] and 0.82 in data set [13]. The MPE with Mus musculus [16] was 84%. Also, the inhibition entry in the data set with Mus musculus [11] was “Dose-dependent effect”. For the same compound, the inhibition entry in the data set with Mus musculus [12] was “inactive”.
With `Cc1cc(O)cc(C)c1C[C@H](N)C(=O)N[C@@H]1CCCCNC(=O)C[C@@H](C(N)=O)NC(=O)[C@H](Cc2ccccc2)NC(=O)[C@H](Cc2ccc(C(F)(F)F)cc2)NC1=O`, the result at Mu-type opioid receptor [15] was inactive. In addition, the EC50 in [2] was 9.33 nM. The remaining at 1.5 h, 500 µM in data set [4] stood at 96%. Also, the values for the IC50 (in data set [6]; at Mu-type opioid receptor [7]; in data set [8]) were 6.4 nM, more than 1000 nM and more than 1000 nM, respectively. For the same compound, the Ratio in [9] was 0.28.
With `NC(=O)[C@@H]1CC(=O)NCCCC[C@@H](NC(=O)[C@@H](N)Cc2ccc(O)cc2)C(=O)N[C@@H](Cc2ccccc2)C(=O)N[C@@H](Cc2ccc(C(F)(F)F)cc2)C(=O)N1`, the figures for the EC50 (in [2]; at Mu-type opioid receptor [3]; in data set [5]) were 162 nM, 5.25 nM and 11.7 nM, respectively. For the same compound, the remaining at 1.5 h, 500 µM in [4] stood at 97%. Also, the IC50 in [6] worked out at 1.5 nM; at Mu-type opioid receptor [7] it was 1.6 nM; in data set [8], 429 nM. Moreover, the Ratio in data set [9] was determined as 0.27; in [13], 0.78.
For the compound `Cc1cc(O)cc(C)c1C[C@H](N)C(=O)N[C@@H]1CCCCNC(=O)C[C@@H](C(N)=O)NC(=O)[C@H](Cc2ccc(C(F)(F)F)cc2)NC(=O)[C@H](Cc2ccccc2)NC1=O` (H-[Dmt][dK]F[Phe(4-CF3)]D-NH2; lactam 2-5), the outcome in [14] was inactive. Further, the concentration for a half-maximal effect (EC50) on Mu-type opioid receptor [3] was 6.76 nM; in data set [5] it was 3.63 nM. Also, the remaining at 1.5 h, 500 µM in data set [4] was 93%. Moreover, the values for the IC50 (in [6]; at Mu-type opioid receptor [7]; in data set [8]) were 1.15 nM, 0.92 nM and more than 1000 nM, respectively. The Ratio in data set [13] was found to be 0.6.
